Test results from publication PMC4036227 (Journal of medicinal chemistry, 2013).

Molecular target: WT (S31) M2 proton channel (full length AM2 protein) (Influenza A virus, UniProt P0DOF5)
Assay: biochemical
Settings: read-out: WT % inhibition (TEVC)

Sequence of WT (S31) M2 proton channel (full length AM2 protein) (P0DOF5 whole entry): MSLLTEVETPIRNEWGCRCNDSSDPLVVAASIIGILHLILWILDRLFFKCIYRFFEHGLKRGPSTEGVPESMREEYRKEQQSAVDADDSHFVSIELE

COC(=O)[C@H](Cc1cnc[nH]1)NCC12CC3CC(CC(C3)C1)C2 [Compound 3]
inhibition at 100 µM: 21%
